Experimental data published in the NIST ThermoML archive (doi:10.1021/je900436f).
± gives the expanded uncertainty stated by the source. One block for each molecule: values may come before it.

Details: 298.15 K, Liquid

SMILES: CCCCCl [1-chlorobutane]
mass density (13.52 kPa): 880.805 ± 0.6 kg/m3

mass density (1.535 kPa): 797.775 ± 0.6 kg/m3
SMILES: CC(C)CO [2-methyl-1-propanol]

mass density (5.605 kPa): 780.885 ± 0.75 kg/m3
SMILES: CC(C)(C)O [2-methylpropan-2-ol]

mass density (20.22 kPa): 654.96 ± 1.4 kg/m3
SMILES: CCCCCC [hexane]
